Where “and” joins values, the source holds several entries; their conditions need not be identical. Equal entries are not always repeated. Calls of active or inactive are those of the source. The rule behind the calls is not given here.
Tests used:
[1] = biological target: cGMP-specific 3',5'-cyclic phosphodiesterase (Homo sapiens, UniProt O76074); assay: Inhibition of PDE5
[2] = biological target: Rod cGMP-specific 3',5'-cyclic phosphodiesterase subunit alpha (Homo sapiens, UniProt P16499); assay: Inhibition of PDE6
Chain of Rod cGMP-specific 3',5'-cyclic phosphodiesterase subunit alpha (P16499 whole entry): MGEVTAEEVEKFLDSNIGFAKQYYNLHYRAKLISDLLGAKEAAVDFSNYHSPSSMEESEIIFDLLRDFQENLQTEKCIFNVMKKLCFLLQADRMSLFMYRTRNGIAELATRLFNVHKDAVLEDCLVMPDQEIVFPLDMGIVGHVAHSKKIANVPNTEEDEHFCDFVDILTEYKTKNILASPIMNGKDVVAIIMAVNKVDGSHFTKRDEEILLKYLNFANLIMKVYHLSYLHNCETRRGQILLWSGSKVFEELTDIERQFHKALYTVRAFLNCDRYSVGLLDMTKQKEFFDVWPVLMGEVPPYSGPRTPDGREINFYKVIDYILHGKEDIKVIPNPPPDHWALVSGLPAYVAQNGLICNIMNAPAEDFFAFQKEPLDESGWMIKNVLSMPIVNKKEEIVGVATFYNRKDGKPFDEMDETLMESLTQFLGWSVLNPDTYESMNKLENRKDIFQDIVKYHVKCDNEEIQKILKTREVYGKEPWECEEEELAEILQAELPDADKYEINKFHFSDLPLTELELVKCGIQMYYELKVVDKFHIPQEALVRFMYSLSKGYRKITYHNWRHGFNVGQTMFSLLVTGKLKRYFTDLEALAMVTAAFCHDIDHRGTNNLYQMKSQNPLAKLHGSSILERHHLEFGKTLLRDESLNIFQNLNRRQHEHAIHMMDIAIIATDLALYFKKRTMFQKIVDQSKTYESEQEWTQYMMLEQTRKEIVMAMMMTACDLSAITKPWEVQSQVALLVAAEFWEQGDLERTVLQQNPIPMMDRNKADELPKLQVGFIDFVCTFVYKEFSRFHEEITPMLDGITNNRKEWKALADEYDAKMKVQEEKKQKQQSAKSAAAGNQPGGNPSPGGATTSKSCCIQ

Rattus norvegicus [3] = assay: Antihypertensive activity against telemeterized rat at 10 mg/kg, po; assay type: functional, organism-based; design: dose 10 mg/kg
[4] = Clearance in rat at 2 mg/kg, po and 2 mg/kg, iv; assay type: ADME, organism-based; conditions: in vivo
[5] = Oral bioavailability in rat at 2 mg/kg; assay type: ADME, organism-based; conditions: in vivo
[6] = Volume of distribution in rat at 2 mg/kg, iv and 2 mg/kg, po; assay type: ADME, organism-based; conditions: in vivo
[7] = Volume of distribution in dog at 2 mg/kg, iv and 2 mg/kg, po; assay type: ADME, organism-based, Canis lupus familiaris; conditions: in vivo
[8] = Clearance in dog at 2 mg/kg, po and 2 mg/kg, iv; assay type: ADME, organism-based, Canis lupus familiaris; conditions: in vivo
[9] = Half life in rat at 2 mg/kg, po and 2 mg/kg, iv; assay type: ADME, organism-based; conditions: in vivo
[10] = Half life in dog at 2 mg/kg, po and 2 mg/kg, iv; assay type: ADME, organism-based, Canis lupus familiaris; conditions: in vivo
[11] = Oral bioavailability in dog at 2 mg/kg; assay type: ADME, organism-based, Canis lupus familiaris; conditions: in vivo
[12] = Selectivity ratio of IC50 for PDE5 to IC50 for PDE6
Rattus norvegicus [13] = species on record: Rattus norvegicus; assay: Unbound volume of distribution in rat; assay type: ADME, organism-based; conditions: in vivo
Rattus norvegicus [14] = species on record: Rattus norvegicus; assay: Unbound clearance in rat; assay type: ADME, organism-based; conditions: in vivo
[15] = Half life in rat; assay type: ADME, organism-based; conditions: in vivo

Structure (SMILES)	IC50 [1] [nM]	IC50 [2] [nM]	clearance [4] [mL/min/kg]	further results
CCCOCCn1c(=O)c(NCC2CCOCC2)nc2ncc(-c3ccc(OC)nc3)cc21	0.14	31.4	30	Activity (Rattus norvegicus [3]): Active; bioavailability [5]: 15%
CCCOCCn1c(=O)c(NCC(=O)N(C)C)nc2ncc(-c3ccc(OC)nc3)cc21	2.59	398	33	Activity (Rattus norvegicus [3]): Active; bioavailability [5]: 46%; Vd [6]: 1.1 L/kg; Vd [7]: 1.2 L/kg; clearance [8]: 9.4 mL/min/kg; half-life [9]: 0.6 h; half-life [10]: 2.1 h; bioavailability [11]: 32%
CCCOCCn1c(=O)c(NCC(=O)NC)nc2ncc(-c3ccc(OC)nc3)cc21	0.43	115	19.5	bioavailability [5]: 39%; Vd [6]: 1 L/kg; Vd [7]: 1.3 L/kg; clearance [8]: 8.8 mL/min/kg; half-life [9]: 0.8 h; half-life [10]: 2.4 h; bioavailability [11]: 52%
CCCOCCn1c(=O)c(NCCO)nc2ncc(-c3ccc(OC)nc3)cc21	1.17	114		Activity (Rattus norvegicus [3]): Active; Ratio IC50 [12]: 97
CCCOCCn1c(=O)c(NCc2ccccn2)nc2ncc(-c3ccc(OC)nc3)cc21	0.36	34.5		
CCCOCCn1c(=O)c(N[C@@H](C)CO)nc2ncc(-c3ccc(OC)nc3)cc21	0.55	68.2		
CCCOCCn1c(=O)c(NCC(=O)N(C)C)nc2cnc(-c3ccc(OC)nc3)cc21	0.68	86.6	27	Activity (Rattus norvegicus [3]): Active; bioavailability [5]: 52%; Vd [6]: 0.9 L/kg; Vd [7]: 0.4 L/kg; clearance [8]: 1.8 mL/min/kg; half-life [9]: 0.6 h; half-life [10]: 4.3 h; bioavailability [11]: 30%; Ratio IC50 [12]: 97
CCCOCCn1c(=O)c(NC[C@H](C)O)nc2cnc(-c3ccc(OC)nc3)cc21	0.09	15.3	13.8	bioavailability [5]: 42%; Vd [6]: 1 L/kg; Vd [7]: 4.3 L/kg; clearance [8]: 17.8 mL/min/kg; half-life [9]: 1.3 h; half-life [10]: 4.1 h; bioavailability [11]: 38%; Vdu (Rattus norvegicus [13]): 35 L/kg; CL free (Rattus norvegicus [14]): 500 mL/min/kg
CCCOCCn1c(=O)c(NCC(=O)N2CCNCC2)nc2cnc(-c3ccc(OC)nc3)cc21	1.65	100		
CCCOCCn1c(=O)c(N[C@H](CC)CO)nc2cnc(-c3ccc(OC)nc3)cc21	0.25	23.2	22.6	bioavailability [5]: 61%; Vd [6]: 2.4 L/kg; half-life [9]: 1.8 h
CCCOCCn1c(=O)c(NCC(=O)N2CCOCC2)nc2cnc(-c3ccc(OC)nc3)cc21	0.15	16.1	9.1	bioavailability [5]: 35%; Vd [6]: 0.5 L/kg; Vd [7]: 1.2 L/kg; clearance [8]: 5.3 mL/min/kg; half-life [9]: 0.8 h; half-life [10]: 3.9 h; bioavailability [11]: 32%
CCCOCCn1c(=O)c(NCC(=O)N2CCN(CC)CC2)nc2ncc(-c3ccc(OC)nc3)cc21	0.38	98.9		
CCCOCCn1c(=O)c(NC[C@@H](C)O)nc2cnc(-c3ccc(OC)nc3)cc21	0.1	15.1		
CCCOCCn1c(=O)c(N[C@@H](C)CO)nc2cnc(-c3ccc(OC)nc3)cc21	0.24	17.9		
CCCOCCn1c(=O)c(NCCCO)nc2ncc(-c3ccc(OC)nc3)cc21	0.71	124		
CCCOCCn1c(=O)c(NCc2cnccn2)nc2cnc(-c3ccc(OC)nc3)cc21	0.06	4.7		
CCCOCCn1c(=O)c(N[C@H](C)CO)nc2ncc(-c3ccc(OC)nc3)cc21	0.88	63.2		
CCCOCCn1c(=O)c(NCCO)nc2cnc(-c3ccc(OC)nc3)cc21	0.9	26.3		Activity (Rattus norvegicus [3]): inactive; Ratio IC50 [12]: 30
CCCOCCn1c(=O)c(NCCN2CCOCC2)nc2ncc(-c3ccc(OC)nc3)cc21		61.8		half-life [15]: 1.8 h
CCCOCCn1c(=O)c(NCCN(C)C)nc2ncc(-c3ccc(OC)nc3)cc21	4	1590		
CCCOCCn1c(=O)c(NCCN(C)C)nc2cnc(-c3ccc(OC)nc3)cc21	0.78	261		
CCCOCCn1c(=O)c(NCC(=O)N2CCC(O)CC2)nc2cnc(-c3ccc(OC)nc3)cc21	0.13	24.6	10.5	bioavailability [5]: 52%; Vd [6]: 1 L/kg; half-life [9]: 1.7 h
CCCOCCn1c(=O)c(NC[C@H](C)O)nc2ncc(-c3ccc(OC)nc3)cc21	0.34	51.8		
CCCOCCn1c(=O)c(NCC(=O)O)nc2cnc(-c3ccc(OC)nc3)cc21	1.05	45.5		Activity (Rattus norvegicus [3]): inactive; Ratio IC50 [12]: 43 and 30

The next lines start with results.

IC50 [1] [nM]	IC50 [2] [nM]	clearance [4] [mL/min/kg]	Structure (SMILES)	further results
0.04	10.8	21.9	CCCOCCn1c(=O)c(NCc2ccccn2)nc2cnc(-c3ccc(OC)nc3)cc21	Activity (Rattus norvegicus [3]): Active; bioavailability [5]: 54%
0.25	1210		CCCOCCn1c(=O)c(NCCN)nc2cnc(-c3ccc(OC)nc3)cc21	
0.54	49.7		CCCOCCn1c(=O)c(NC[C@@H](C)O)nc2ncc(-c3ccc(OC)nc3)cc21	
2.59	398		CCCOCCn1c(=O)c(NCC(N)=O)nc2ncc(-c3ccc(OC)nc3)cc21	
0.08	39.5		CCCOCCn1c(=O)c(NCC(=O)N2CCCC2)nc2cnc(-c3ccc(OC)nc3)cc21	
0.07	14.7		CCCOCCn1c(=O)c(NCC(=O)N2CCN(C)CC2)nc2cnc(-c3ccc(OC)nc3)cc21	
0.17	57.4		CCCOCCn1c(=O)c(NCCOCC)nc2ncc(-c3ccc(OC)nc3)cc21	Activity (Rattus norvegicus [3]): inactive
0.05	8.6	52	CCCOCCn1c(=O)c(NCC2CCCO2)nc2cnc(-c3ccc(OC)nc3)cc21 (racemic)	Activity (Rattus norvegicus [3]): Active
0.68	86.6		CCCOCCn1c(=O)c(NCC(N)=O)nc2cnc(-c3ccc(OC)nc3)cc21	
0.28	23.6		CCCOCCn1c(=O)c(NCc2cnccn2)nc2ncc(-c3ccc(OC)nc3)cc21	Activity (Rattus norvegicus [3]): Active
0.14	17.7		CCCOCCn1c(=O)c(N[C@H](C)CO)nc2cnc(-c3ccc(OC)nc3)cc21	
1.17	114	18	CCCOCCn1c(=O)c(NCC(=O)N2CCOCC2)nc2ncc(-c3ccc(OC)nc3)cc21	bioavailability [5]: 51%; Vd [6]: 0.8 L/kg; Vd [7]: 0.9 L/kg; clearance [8]: 16.7 mL/min/kg; half-life [9]: 0.8 h; half-life [10]: 0.9 h; bioavailability [11]: 32%
0.32	15.3		CCCOCCn1c(=O)c(N[C@H]2CC[C@H](O)CC2)nc2ncc(-c3ccc(OC)nc3)cc21	
0.13	55.9	28	CCCOCCn1c(=O)c(NCC(=O)N2CCN(CC)CC2)nc2cnc(-c3ccc(OC)nc3)cc21	bioavailability [5]: 61%; Vd [6]: 2.3 L/kg; Vd [7]: 8 L/kg; clearance [8]: 37 mL/min/kg; half-life [9]: 1.4 h; half-life [10]: 3.5 h; bioavailability [11]: 15%
2.95	576		CCCOCCn1c(=O)c(NCC(=O)O)nc2ncc(-c3ccc(OC)nc3)cc21	
0.26	13.8	28	CCCOCCn1c(=O)c(NCCCO)nc2cnc(-c3ccc(OC)nc3)cc21	bioavailability [5]: 52%; Vd [6]: 1.2 L/kg; half-life [9]: 0.7 h; Vdu (Rattus norvegicus [13]): 31 L/kg; CL free (Rattus norvegicus [14]): 730 mL/min/kg; Ratio IC50 [12]: 30
0.11	9.3		CCCOCCn1c(=O)c(NCCOCC)nc2cnc(-c3ccc(OC)nc3)cc21	
16.3	> 2000		CCCOCCn1c(=O)c(NCCN)nc2ncc(-c3ccc(OC)nc3)cc21	
0.07	15.2		CCCOCCn1c(=O)c(NCC(=O)NC)nc2cnc(-c3ccc(OC)nc3)cc21	
1.1	272	170	CCCOCCn1c(=O)c(NCCNCCO)nc2cnc(-c3ccc(OC)nc3)cc21	Activity (Rattus norvegicus [3]): Active; bioavailability [5]: 53%
0.32	80.2		CCCOCCn1c(=O)c(NCC(=O)N2CCN(C)CC2)nc2ncc(-c3ccc(OC)nc3)cc21	
